# Activity calls are given as the source filed them. No cut-off for these calls is given here. Non-standard residues stand in square brackets, D forms with d. Residues, ends and D or L forms follow the SMILES beside them. *: point of attachment. X1 = OC[C@H]1O[C@@H](O[C@H]2[C@H](O)[C@@H](O)[C@@H](*)O[C@@H]2CO)[C@H](O)[C@@H](O)[C@H]1O; βGal = OC[C@H]1O[C@@H](*)[C@H](O)[C@@H](O)[C@H]1O; X2 = OC[C@H]1O[C@@H](N*)[C@H](O)[C@@H](O)[C@H]1O; Cha = N[C@@H](CC1CCCCC1)C(=O)O
# Columns and labels:
# [1] = target: Galectin-1 (Homo sapiens) (UniProt P09382); experiment: Inhibition of carbohydrate-dependent human galectin1 binding at 10 mM by solid phase assay
# [2] = system: CAPAN-1; experiment: Inhibition of carbohydrate-dependent galectin1 binding to human Capan1 cell surface at 2mM; format: functional; set-up: scale not given: the % may be the effect or the level left
# [3] = target: Galectin-3 (Homo sapiens) (UniProt P17931); experiment: Inhibition of carbohydrate-dependent human galectin3 binding at 10 mM by solid phase assay
# [4] = system: SW480; experiment: Inhibition of carbohydrate-dependent galectin3 binding to human SW480 cell surface at 1mM; format: functional; set-up: scale not given: the % may be the effect or the level left
# [5] = system: SW480; experiment: Inhibition of carbohydrate-dependent galectin3 binding to human SW480 cell surface at 2mM; format: functional, cell-based; set-up: scale not given: the % may be the effect or the level left
# [6] = system: SW480; experiment: Inhibition of carbohydrate-dependent galectin3 binding to human SW480 cell surface at 0.5mM; format: functional, cell-based; set-up: scale not given: the % may be the effect or the level left
# [7] = system: SW480; experiment: Inhibition of carbohydrate-dependent galectin3 binding to human SW480 cell surface at 5 mM; format: functional, cell-based; set-up: scale not given: the % may be the effect or the level left
# Sequence of Galectin-1 (Homo sapiens) (P09382 whole entry): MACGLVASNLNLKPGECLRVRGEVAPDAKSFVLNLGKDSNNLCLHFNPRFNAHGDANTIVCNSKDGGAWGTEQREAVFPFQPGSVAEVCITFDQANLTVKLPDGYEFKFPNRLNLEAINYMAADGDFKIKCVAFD
# Sequence of Galectin-3 (Homo sapiens) (P17931 whole entry): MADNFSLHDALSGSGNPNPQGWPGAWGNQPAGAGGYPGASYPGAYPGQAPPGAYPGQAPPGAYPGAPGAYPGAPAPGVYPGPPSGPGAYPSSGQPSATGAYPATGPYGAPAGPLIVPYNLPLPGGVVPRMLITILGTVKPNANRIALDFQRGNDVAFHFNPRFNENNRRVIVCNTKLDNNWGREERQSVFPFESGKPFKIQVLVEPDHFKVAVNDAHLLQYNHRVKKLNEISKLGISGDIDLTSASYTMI
inhibition [1],inhibition [3],Compound,other results
14%,,CC[C@H](C)[C@H](NC(=O)[C@H](Cc1ccccc1)NC(=O)[C@@H]1CCCN1)C(=O)N[C@@H](CC1CCCCC1)C(=O)N[C@@H](Cc1ccccc1)C(=O)N[C@@H](CCC(N)=O)C(=O)O,
,inactive,CSCC[C@H](N)C(=O)N[C@@H](CCCNC(=N)N)C(=O)N[C@H](C(=O)N[C@@H](CCCNC(=N)N)C(=O)N[C@H](C(=O)N[C@@H](CCCNC(=N)N)C(=O)O)[C@@H](C)O[C@H]1O[C@H](CO)[C@@H](O[C@@H]2O[C@H](CO)[C@H](O)[C@H](O)[C@H]2O)[C@H](O)[C@H]1O)[C@@H](C)O[C@H]1O[C@H](CO)[C@@H](O[C@@H]2O[C@H](CO)[C@H](O)[C@H](O)[C@H]2O)[C@H](O)[C@H]1O,
,15%,C[C@H](NC(=O)[C@@H](N)[C@@H](C)O[C@H]1O[C@H](CO)[C@@H](O[C@@H]2O[C@H](CO)[C@H](O)[C@H](O)[C@H]2O)[C@H](O)[C@H]1O)C(=O)N[C@@H](CC(N)=O)C(=O)N[C@@H](Cc1ccc(O)cc1)C(=O)N[C@H](C(=O)N[C@@H](CCCNC(=N)N)C(=O)O)[C@@H](C)O[C@H]1O[C@H](CO)[C@@H](O[C@@H]2O[C@H](CO)[C@H](O)[C@H](O)[C@H]2O)[C@H](O)[C@H]1O,
inactive,,CC[C@H](C)[C@H](NC(=O)[C@@H](NC(=O)[C@H](CCCNC(=N)N)NC(=O)[C@H](CCCNC(=N)N)NC(=O)[C@H](Cc1ccc(O)cc1)NC(=O)[C@H](C)N)[C@@H](C)O[C@H]1O[C@H](CO)[C@@H](O[C@@H]2O[C@H](CO)[C@H](O)[C@H](O)[C@H]2O)[C@H](O)[C@H]1O)C(=O)O (H-AYRRT(X1)I-OH),
70%,,CC[C@H](C)[C@H](N)C(=O)N[C@@H](Cc1ccccc1)C(=O)N[C@@H](CCCNC(=N)N)C(=O)N[C@@H](CC1CCCCC1)C(=O)N[C@@H](CCCNC(=N)N)C(=O)N[C@@H](Cc1ccc(O)cc1)C(=O)O (H-IFR[Cha]RY-OH),
22%,,CSCC[C@H](N)C(=O)N[C@@H](Cc1ccccc1)C(=O)N[C@H](C(=O)N[C@@H](CC1CCCCC1)C(=O)N[C@@H](CC1CCCCC1)C(=O)N[C@@H](CCCNC(=N)N)C(=O)O)C(C)C (H-MFV[Cha][Cha]R-OH),
,76%,O=C(O)[C@H](Cc1ccccc1)NC(=O)[C@H](Cc1ccccc1)NC(=O)[C@H](Cc1ccccc1)NC(=O)[C@H](Cc1ccccc1)NC(=O)[C@H](Cc1ccccc1)NC(=O)[C@@H]1CCCN1 (H-PFFFFF-OH),
9%,,CC[C@H](C)[C@H](NC(=O)[C@H](Cc1ccccc1)NC(=O)[C@H](Cc1ccccc1)NC(=O)[C@@H]1CCCN1)C(=O)N[C@@H](CO)C(=O)N[C@@H](CCCNC(=N)N)C(=O)O (H-PFFISR-OH),Activity [4]: 63%
inactive,,CC[C@H](C)[C@H](NC(=O)[C@@H]1CCCN1)C(=O)N[C@@H](Cc1ccccc1)C(=O)N[C@H](C(=O)N[C@@H](CCCNC(=N)N)C(=O)N[C@@H](CCCNC(=N)N)C(=O)O)[C@@H](C)O[C@H]1O[C@H](CO)[C@@H](O[C@@H]2O[C@H](CO)[C@H](O)[C@H](O)[C@H]2O)[C@H](O)[C@H]1O (H-PIFT(X1)RR-OH),
inactive,,CC[C@H](C)[C@H](NC(=O)[C@@H](NC(=O)[C@@H]1CCCN1)[C@@H](C)O)C(=O)N[C@@H](Cc1ccccc1)C(=O)N[C@@H](Cc1ccccc1)C(=O)N[C@@H](Cc1ccccc1)C(=O)O (H-PTIFFF-OH),
67%,,CC(C)[C@H](NC(=O)[C@H](CC1CCCCC1)NC(=O)[C@H](CC(N)=O)NC(=O)[C@H](CC1CCCCC1)NC(=O)[C@@H]1CCCN1)C(=O)N[C@@H](Cc1ccc(O)cc1)C(=O)O (H-P[Cha]N[Cha]VY-OH),
,inactive,CC(C)[C@H](NC(=O)[C@@H](N)CCCNC(=N)N)C(=O)N[C@@H](Cc1cnc[nH]1)C(=O)N[C@@H](Cc1ccc(O)cc1)C(=O)N[C@H](C(=O)N[C@@H](CCCNC(=N)N)C(=O)O)[C@@H](C)O[C@H]1O[C@H](CO)[C@@H](O[C@@H]2O[C@H](CO)[C@H](O)[C@H](O)[C@H]2O)[C@H](O)[C@H]1O (H-RVHYT(X1)R-OH),Activity [4]: 35%
22%,,C[C@H](NC(=O)[C@@H](N)CO)C(=O)N[C@@H](CO)C(=O)N[C@@H](CO)C(=O)N[C@H](C(=O)N[C@@H](CCCNC(=N)N)C(=O)O)[C@@H](C)O[C@H]1O[C@H](CO)[C@@H](O[C@@H]2O[C@H](CO)[C@H](O)[C@H](O)[C@H]2O)[C@H](O)[C@H]1O (H-SASST(X1)R-OH),
,28%,CSCC[C@H](NC(=O)[C@@H]1CCCN1C(=O)[C@H](CCCNC(=N)N)NC(=O)[C@H](CC1CCCCC1)NC(=O)[C@@H](N)CC1CCCCC1)C(=O)N[C@@H](CCCNC(=N)N)C(=O)O (H-[Cha][Cha]RPMR-OH),

# The next lines start with the compound.
Compound,inhibition [1],inhibition [3],other results
CSCC[C@H](NC(=O)[C@@H](N)[C@@H](C)O[C@H]1O[C@H](CO)[C@@H](O[C@@H]2O[C@H](CO)[C@H](O)[C@H](O)[C@H]2O)[C@H](O)[C@H]1O)C(=O)N[C@@H](CCCNC(=N)N)C(=O)N[C@@H](C)C(=O)N[C@H](C(=O)N[C@@H](CC1CCCCC1)C(=O)O)[C@@H](C)O[C@H]1O[C@H](CO)[C@@H](O[C@@H]2O[C@H](CO)[C@H](O)[C@H](O)[C@H]2O)[C@H](O)[C@H]1O,38%,,Activity [2]: 22%
C[C@@H](O)[C@H](NC(=O)[C@H](Cc1ccc(O)cc1)NC(=O)[C@H](CC1CCCCC1)NC(=O)[C@H](Cc1cnc[nH]1)NC(=O)[C@H](CC1CCCCC1)NC(=O)[C@@H](N)Cc1ccc(O)cc1)C(=O)O,9%,,
OC[C@H]1O[C@@H](O)[C@H](O)[C@@H](O)[C@H]1O,17%,inactive,
CC[C@H](C)[C@H](NC(=O)[C@@H](NC(=O)[C@H](CCCNC(=N)N)NC(=O)[C@@H]1CCCN1C(=O)[C@H](CCCNC(=N)N)NC(=O)[C@@H](N)Cc1ccccc1)[C@@H](C)O[C@H]1O[C@H](CO)[C@@H](O[C@@H]2O[C@H](CO)[C@H](O)[C@H](O)[C@H]2O)[C@H](O)[C@H]1O)C(=O)O (H-FRPRT(X1)I-OH),3%,,Activity [2]: 12%
CC[C@H](C)[C@H](NC(=O)[C@H](Cc1ccccc1)NC(=O)[C@@H](NC(=O)CN)C(C)C)C(=O)N[C@@H](CC1CCCCC1)C(=O)N[C@@H](C)C(=O)O (H-GVFI[Cha]A-OH),inactive,,
CC(C)[C@H](NC(=O)[C@H](Cc1cnc[nH]1)NC(=O)[C@@H](N)Cc1cnc[nH]1)C(=O)N[C@@H](Cc1ccc(O)cc1)C(=O)N[C@@H](Cc1ccc(O)cc1)C(=O)N[C@@H](Cc1cnc[nH]1)C(=O)O (H-HHVYYH-OH),,inactive,
CC[C@H](C)[C@H](NC(=O)[C@H](CCCNC(=N)N)NC(=O)[C@@H](NC(=O)[C@H](Cc1ccccc1)NC(=O)[C@@H](NC(=O)[C@@H](N)CC(N)=O)[C@@H](C)O[C@H]1O[C@H](CO)[C@@H](O[C@@H]2O[C@H](CO)[C@H](O)[C@H](O)[C@H]2O)[C@H](O)[C@H]1O)C(C)C)C(=O)O (H-NT(X1)FVRI-OH),,44%,Activity [4]: 40%
CC(C)[C@H](NC(=O)[C@@H](NC(=O)[C@@H]1CCCN1)[C@@H](C)O[C@H]1O[C@H](CO)[C@@H](O[C@@H]2O[C@H](CO)[C@H](O)[C@H](O)[C@H]2O)[C@H](O)[C@H]1O)C(=O)N[C@@H](C)C(=O)N1CCC[C@H]1C(=O)N[C@@H](CCCNC(=N)N)C(=O)O (H-PT(X1)VAPR-OH),,inactive,
CC[C@H](C)[C@H](NC(=O)[C@H](Cc1ccccc1)NC(=O)[C@H](CCCNC(=N)N)NC(=O)[C@H](CCCNC(=N)N)NC(=O)[C@H](CC1CCCCC1)NC(=O)[C@@H](N)[C@@H](C)O[C@H]1O[C@H](CO)[C@@H](O[C@@H]2O[C@H](CO)[C@H](O)[C@H](O)[C@H]2O)[C@H](O)[C@H]1O)C(=O)O (H-T(X1)[Cha]RRFI-OH),inactive,,Activity [4]: 34%
CC[C@H](C)[C@H](NC(=O)[C@@H](N)[C@@H](C)O[C@@H]1O[C@H](CO)[C@H](O)[C@H](O)[C@H]1O)C(=O)N[C@H](C(=O)N[C@@H](CCC(N)=O)C(=O)N[C@@H](CC1CCCCC1)C(=O)N[C@@H](Cc1ccc(O)cc1)C(=O)O)[C@@H](C)CC (H-T(βGal)IIQ[Cha]Y-OH),inactive,,Activity [4]: 77%
CC[C@H](C)[C@H](NC(=O)[C@@H](NC(=O)[C@@H](N)CC1CCCCC1)C(C)C)C(=O)N[C@@H](CC(=O)N[C@@H]1O[C@H](CO)[C@H](O)[C@H](O)[C@H]1O)C(=O)N[C@@H](Cc1ccc(O)cc1)C(=O)N[C@@H](CCC(N)=O)C(=O)O (H-[Cha]VID(X2)YQ-OH),inactive,,
"LACTOSE, ANHYDROUS",54%,44%,Activity [5]: 24%; Activity [6]: 43%; Activity [4]: 44%; Activity [7]: 10%
